Legend:
[1] = target: T1, catalytic domain (JH1, amino acids 808-1132) of human JAK2 (Homo sapiens, UniProt O60674); assay: JAK2 HTRF Enzyme Activity Assay; format: biochemical; conditions: ATP (30 μM or 1 mM; not stated which for the table), 60 minutes at 25° C.; read-out: JAK2 HTRF (Ex. D)
T1 construct: catalytic domain (JH1, amino acids 808-1132) of human JAK2; His (N); purchased BPS Bioscience 40450; host or cells: baculovirus expression system
Method: Example D. JAK2 HTRF Enzyme Activity Assay
JAK2 enzyme activity assays utilize catalytic domain (JH1, amino acids 808-1132) of human JAK2 expressed as N-terminal His-tagged protein in a baculovirus expression system (BPS Bioscience, Catalog #40450). The assays was conducted in black 384-well polystyrene plates in a final reaction volume of 20 μL. JAK2 (0.015 nM) was incubated with compounds (100 nL serially diluted in DMSO) in the presence of ATP (30 μM or 1 mM) and 500 nM Biotin-labeled EQEDEPEGDYFEWLE (SEQ ID NO.: 1) peptide (BioSource International, custom synthesis) in assay buffer (50 mM Tris, pH=7.5, 10 mM MgCl2, 0.01% Brij-35, 0.1% BSA, 1 mM EGTA, 5% Glycerol and 5 mM DTT) for 60 minutes at 25° C. The reactions were stopped by the addition of 10 μL of detection buffer (50 mM Tris, pH 7.8, 0.5 mg/mL BSA, 150 mM NaCl), supplemented with EDTA, LANCE Eu-W1024 anti-phosphotyrosine (PY20), (PerkinElmer, Catalog #AD0067) and Streptavidin SureLight APC (PerkinElmer Catalog #CR130-100), for a final concentration of 15 mM, 1.5 nM and 75 nM, respectively. HTRF signals were read after 30 minutes incubation at room temperature on a PHERAstar FS plate reader (BMG LABTECH). Data was analyzed with TDBS Xlfit and GraphPad Prism 5.0 software using a four parameter dose response curve to determine IC50 for each compound.

[2] = target: T2, pseudo-kinase domain (JH2, amino-acids 536-812) of human Wild Type JAK2 (Homo sapiens, UniProt O60674, F794H/W659A/W777A); assay: JAK2 LanthaScreen JH2-WT Binding Assay; conditions: 50 nM Fluorescent JAK2-JH2 Tracer, 1 hour at 25° C.; read-out: JH2 BIND WT (EX. B)
T2 construct: JH2, amino-acids 536-812 with 3 surface mutations W659A, W777A, F794H; His (C); purchased BPS Bioscience 79463; host or cells: baculovirus expression system
Method: Example B. JAK2 LanthaScreen JH2-WT Binding Assay
(§1) JAK2 JH2-WT binding assay utilizes pseudo-kinase domain (JH2, amino-acids 536-812 with 3 surface mutations W659A, W777A, F794H) of human Wild Type JAK2 expressed as C-terminal His-Avi-tagged, biotinylated protein in a baculovirus expression system (BPS Bioscience, Catalog #79463). The assay was conducted in black 384-well polystyrene plates in a final reaction volume of 20 μL. JAK2 JH2-WT (0.145 nM) was incubated with compounds (100 nL serially diluted in DMSO) in the presence of 50 nM Fluorescent JAK2-JH2 Tracer (MedChem Express Catalog #HY-102055) and 0.25 nM Streptavidin-Tb cryptate (Cisbio Part #610SATLB) in assay buffer (50 mM Tris, pH=7.5, 10 mM MgCl2, 0.01% Brij-35, 0.1% BSA, 1 mM EGTA, 5% Glycerol and 5 mM DTT). Non-specific binding was accessed in the presence of 2 mM ATP. After incubation for 1 hour at 25° C., LanthaScreen signals were read on a PHERAstar FS plate reader (BMG LABTECH). Data was analyzed with IDBS Xlfit and GraphPad Prism 5.0 software using a four parameter dose response curve to determine IC50 for each compound.

[3] = target: T3, catalytic domain (JH1, amino acids 826-1132) of human JAK2 (Homo sapiens, UniProt O60674); assay: JAK2 LanthaScreen JH1 Binding Assay; conditions: 50 nM fluorescent JAK2-JH1 tracer, 2 hours at 25° C.; read-out: JH1 BIND (EX. A)
T3 construct: catalytic domain (JH1, amino acids 826-1132) of human JAK2; FLAG (N); purchased Carna Biosciences 08-445-20N; host or cells: baculovirus expression system
Method: Example A. JAK2 LanthaScreen JH1 Binding Assay
JAK2 JH1 binding assay utilizes catalytic domain (JH1, amino acids 826-1132) of human JAK2 expressed as N-terminal FLAG-tagged, biotinylated protein in a baculovirus expression system (Carna Biosciences, Product #08-445-20N). The assay was conducted in black 384-well polystyrene plates in a final reaction volume of 20 μL. JAK2 JH1 (1.5 nM) was incubated with compounds (100 nL serially diluted in DMSO) in the presence of 50 nM fluorescent JAK2-JH1 tracer and 0.5 nM Streptavidin-Tb cryptate (Cisbio Part #610SATLB) in assay buffer (50 mM Tris, pH=7.5, 10 mM MgCl2, 0.01% Brij-35, 0.1% BSA, 1 mM EGTA, 5% Glycerol and 5 mM DTT). Non-specific binding was accessed in the presence of 2 mM ATP. After incubation for 2 hours at 25° C., LanthaScreen signals were read on a PHERAstar FS plate reader (BMG LABTECH). Data was analyzed with IDBS Xlfit and GraphPad Prism 5.0 software using a four parameter dose response curve to determine IC50 for each compound.

[4] = target: T4, pseudo-kinase domain (JH2, amino-acids 536-812) of human V617F mutant JAK2 (Homo sapiens, UniProt O60674, F794H/V617F/W659A/W777A); assay: JAK2 LanthaScreen JH2-V617F Binding Assay; conditions: 50 nM Fluorescent JAK2-JH2 Tracer, 1 hour at 25° C.; read-out: JH2 BIND V617F (Ex. C)
T4 construct: JH2, amino-acids 536-812 with 3 surface mutations W659A, W777A, F794H; His (C); purchased BPS Bioscience 79498; host or cells: baculovirus expression system
Method: Example C. JAK2 LanthaScreen JH2-V617F Binding Assay
as §1, with “JH2-V617F” for “JH2-WT”, “V617F mutant” for “Wild Type”, “#79498).” for “#79463).”, “JH2-V617F (0.26” for “JH2-WT (0.145”

T3 sequence (O60674 826-1132): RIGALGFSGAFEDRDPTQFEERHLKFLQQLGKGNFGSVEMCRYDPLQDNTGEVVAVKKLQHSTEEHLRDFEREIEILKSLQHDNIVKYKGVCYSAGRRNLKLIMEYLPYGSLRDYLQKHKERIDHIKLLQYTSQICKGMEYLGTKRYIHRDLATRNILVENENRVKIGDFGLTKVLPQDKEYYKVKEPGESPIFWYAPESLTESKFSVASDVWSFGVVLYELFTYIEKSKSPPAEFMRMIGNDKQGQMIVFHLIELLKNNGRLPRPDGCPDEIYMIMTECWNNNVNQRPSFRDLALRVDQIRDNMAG
T2 sequence (O60674 536-812 W659A/W777A/F794H): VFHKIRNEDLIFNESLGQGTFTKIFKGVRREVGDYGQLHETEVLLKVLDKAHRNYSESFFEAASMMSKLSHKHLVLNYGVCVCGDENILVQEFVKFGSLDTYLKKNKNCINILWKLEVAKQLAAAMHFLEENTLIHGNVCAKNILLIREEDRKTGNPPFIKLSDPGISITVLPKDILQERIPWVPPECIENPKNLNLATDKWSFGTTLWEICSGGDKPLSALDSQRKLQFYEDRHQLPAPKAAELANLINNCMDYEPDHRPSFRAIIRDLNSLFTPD
T4 sequence (O60674 536-812 V617F/W659A/W777A/F794H): as the sequence (O60674 536-812 W659A/W777A/F794H) above, with V82F counted along it
T1 sequence (O60674 808-1132): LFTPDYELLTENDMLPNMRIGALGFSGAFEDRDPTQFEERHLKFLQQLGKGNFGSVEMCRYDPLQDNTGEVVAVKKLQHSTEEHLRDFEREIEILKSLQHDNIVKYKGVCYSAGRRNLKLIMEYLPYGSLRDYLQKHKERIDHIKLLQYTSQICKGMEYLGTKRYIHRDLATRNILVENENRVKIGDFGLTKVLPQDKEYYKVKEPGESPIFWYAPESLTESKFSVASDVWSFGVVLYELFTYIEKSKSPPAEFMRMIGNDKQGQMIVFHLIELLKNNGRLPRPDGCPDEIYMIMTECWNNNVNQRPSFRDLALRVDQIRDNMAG

| SMILES | IC50 [1] [µM] | IC50 [2] [µM] | IC50 [3] [µM] | IC50 [4] [µM] |
| --- | --- | --- | --- | --- |
| [2H]C([2H])([2H])n1c(=O)n([C@@H]2CC[C@@H](NC(=O)OC)C2)c2cc(Nc3cc(C(C)(C)OC)c4cccc(C(F)(F)F)c4n3)ncc21 [Example 17, Methyl ((1R,3R)-3-(6-((4-(2-methoxypropan-2-yl)-8-(trifluoromethyl)quinolin-2-yl)amino)-3-(methyl-d3)-2-oxo-2,3-dihydro-1H-imidazo[4,5-c]pyridin-1-yl)cyclopentyl)carbamate] | > 1 | ≤ 0.01 | > 1 | ≤ 0.01 |
| [2H]C([2H])([2H])n1c(=O)n([C@@H]2CC[C@@H](NC(=O)OC)C2)c2cc(Nc3cc(CC#N)c4cccc(C(F)(F)F)c4n3)ncc21 [Example 18, Methyl ((1R,3R)-3-(6-((4-(cyanomethyl)-8-(trifluoromethyl)quinolin-2-yl)amino)-3-(methyl-d3)-2-oxo-2,3-dihydro-1H-imidazo[4,5-c]pyridin-1-yl)cyclopentyl)carbamate] | 0.5 to 1 | ≤ 0.01 | 0.5 to 1 | ≤ 0.01 |
| [2H]C([2H])([2H])n1c(=O)n([C@@H]2CC[C@@H](NC(=O)OC)C2)c2cc(Nc3cc(C(C)(C)C#N)c4cccc(C(F)(F)F)c4n3)ncc21 [Example 19, Methyl ((1R,3R)-3-(6-((4-(2-cyanopropan-2-yl)-8-(trifluoromethyl)quinolin-2-yl)amino)-3-(methyl-d3)-2-oxo-2,3-dihydro-1H-imidazo[4,5-c]pyridin-1-yl)cyclopentyl)carbamate] | > 1 | ≤ 0.01 | > 1 | ≤ 0.01 |
| [2H]C([2H])([2H])n1c(=O)n([C@@H]2CC[C@@H](NC(=O)OC)C2)c2cc(Nc3cc(C(C)(C)O)c4cc(Cl)cc(C(F)(F)F)c4n3)ncc21 [Example 20, Methyl ((1R,3R)-3-(6-((6-chloro-4-(2-hydroxypropan-2-yl)-8-(trifluoromethyl)quinolin-2-yl)amino)-3-(methyl-d3)-2-oxo-2,3-dihydro-1H-imidazo[4,5-c]pyridin-1-yl)cyclopentyl)carbamate] | > 1 | ≤ 0.01 | > 1 | ≤ 0.01 |
| COC(=O)N[C@@H]1CC[C@@H](n2c(=O)n(C)c3cnc(Nc4cc(Cl)c5cccc(C(F)(F)F)c5n4)cc32)C1 [Example 21, Methyl ((1R,3R)-3-(6-((4-chloro-8-(trifluoromethyl)quinolin-2-yl)amino)-3-methyl-2-oxo-2,3-dihydro-1H-imidazo[4,5-c]pyridin-1-yl)cyclopentyl)carbamate] | > 1 | ≤ 0.01 | > 1 | ≤ 0.01 |
| [2H]C([2H])([2H])n1c(=O)n([C@@H]2CC[C@@H](NC(=O)OC)C2)c2cc(Nc3cc(NC(=O)COC)c4cccc(C(F)(F)F)c4n3)ncc21 [Example 22, Methyl ((1R,3R)-3-(6-((4-(2-methoxyacetamido)-8-(trifluoromethyl)quinolin-2-yl)amino)-3-(methyl-d3)-2-oxo-2,3-dihydro-1H-imidazo[4,5-c]pyridin-1-yl)cyclopentyl)carbamate] | > 1 | ≤ 0.01 | > 1 | ≤ 0.01 |
| [2H]C([2H])([2H])n1c(=O)n([C@@H]2CC[C@@H](NC(=O)OC)C2)c2cc(Nc3cc(NS(C)(=O)=O)c4cccc(C(F)(F)F)c4n3)ncc21 [Example 23, Methyl ((1R,3R)-3-(3-(methyl-d3)-6-((4-(methylsulfonamido)-8-(trifluoromethyl)quinolin-2-yl)amino)-2-oxo-2,3-dihydro-1H-imidazo[4,5-c]pyridin-1-yl)cyclopentyl)carbamate] | > 1 | 0.01 to 0.1 | > 1 | 0.01 to 0.1 |
| COC(=O)N[C@@H]1CC[C@@H](n2c(=O)n(C)c3cnc(Nc4ccc5cccc(Br)c5n4)cc32)C1 [Example 24, Methyl ((1R,3R)-3-(6-((8-bromoquinolin-2-yl)amino)-3-methyl-2-oxo-2,3-dihydro-1H-imidazo[4,5-c]pyridin-1-yl)cyclopentyl)carbamate] | > 1 | ≤ 0.01 | > 1 | ≤ 0.01 |
| COC(=O)N[C@@H]1CC[C@@H](n2c(=O)n(C)c3cnc(Nc4ccc5cc(Cl)cc(C(F)(F)F)c5n4)cc32)C1 [Example 25, Methyl ((1R,3R)-3-(6-((6-chloro-8-(trifluoromethyl)quinolin-2-yl)amino)-3-methyl-2-oxo-2,3-dihydro-1H-imidazo[4,5-c]pyridin-1-yl)cyclopentyl)carbamate] | > 1 | ≤ 0.01 | > 1 | ≤ 0.01 |
| [2H]C([2H])([2H])n1c(=O)n([C@@H]2CC[C@@H](NC(=O)OC)C2)c2cc(Nc3ccc4cc(C#N)cc(C(F)(F)F)c4n3)ncc21 [Example 26, Methyl ((1R,3R)-3-(6-((6-cyano-8-(trifluoromethyl)quinolin-2-yl)amino)-3-(methyl-d3)-2-oxo-2,3-dihydro-1H-imidazo[4,5-c]pyridin-1-yl)cyclopentyl)carbamate] | > 1 | ≤ 0.01 | > 1 | ≤ 0.01 |
